Data on 8 compounds can be found in patent US12653191B2, “Active compound combinations” (Bayer Aktiengesellschaft, priority 2020, dated 2026).

“And” between values parts separate entries of the source, which are not always exact repeats. Equal entries are not always repeated. Where two headings read alike, the source gives them in different places.

The subject of assay [1] is Cercospora beticola. Description: in vitro-Test with fungal microorganisms, Method A (tables C1-C10). The format is cell-based. The following applies: Cercospora beticola, read-out: Efficacy %. Here is the method: (§1) Example: In Vitro-Test with Fungal Microorganisms
(§2) Wells of 96-well microtiter plates are filled with 10 μl of a preparation of test compound or compound combination in methanol+emulsifier alkylaryl-polyglycol-ether. Thereafter, the solvent is evaporated in a hood. At the next step, 100 μl of liquid potato dextrose medium is given into each well, that has been amended with an appropriate concentration of spores or mycelium suspension of the test fungus.
(§3) With the aid of a photometer, the extinction in all wells is measured at the wavelength of 620 nm.
(§4) The microtiter plates are incubated at 20° C. and 85% relative humidity. The inhibition of growth is determined again photometrically 3-5 days after the application. Efficacy is calculated in relation to the untreated control, 0% efficacy means fungal growth as high as in untreated control while 100% efficacy means no fungal growth is measured.
(§5) The data in tables A1 to A12, B1 to B14, C1 to C10, D1 to D8, E1 to E8, F1 to F11, G1 to G4, H1 to H4 and I1 to I5 were collected according to Method A. The data in tables A13 to A22, B15 to B18, C11 to C20, E9 to E16, F12 to F15, G5 to G15, H5 to H8, I6 to I11 and J1 to J11 were collected according to Method B.

Another assay relates to Diaporthe citri. Briefly: in vitro-Test with fungal microorganisms, Method A (tables F1-F11). In kind it is cell-based. As to conditions: Diaporthe citri, single active, read-out: Efficacy. The method, then: as §1, §2, §3, §4, §5
The test system of assay [2] is Ustilago segetum var. avenae. Description: in vitro-Test with fungal microorganisms, Method A (tables I1-I5). In kind it is cell-based. The following applies: alone, read-out: Efficacy %. Here is the method: as §1, §2, §3, §4, §5
The test system of assay [3] is Botrytis cinerea. Description: in vitro-Test with fungal microorganisms, Method A (tables B1-B14). The format is cell-based. The following applies: Botrytis cinerea, read-out: Efficacy. Here is the method:
as §1, §2, §3, §4, §5

A further assay concerns Alternaria alternate. Description: in vitro-Test with fungal microorganisms, Method A (tables A1-A12). In kind it is cell-based, Alternaria alternata. As to conditions: Alternaria, applied alone, read-out: Efficacy %. The method, then: as §1, §2, §3, §4, §5
Another assay has as its system Fusarium culmorum. Description: in vitro-Test with fungal microorganisms, Method B (tables G5-G15). The format is cell-based. The following applies: for inhibition of growth at 0.008 ppm / inhibition of growth at 0.04 ppm / inhibition of growth at 0.2 ppm / inhibition of growth at 1 ppm: Fusarium culmorum, alone, read-out: Efficacy. The method, then: as §1
(§6) Wells of 96-well microtiter plates are filled with 30 μl of a preparation of test compound or compound combination in methanol+emulsifier alkylaryl-polyglycol-ether. Thereafter, the solvent is evaporated in a hood. At the next step, 200 μl of liquid growth medium is given, that has been amended with an appropriate concentration of spores or mycelium suspension of the test fungus.
(§7) With the aid of a photometer, the extinction in all wells is measured at the wavelength of 600 nm.
(§8) The microtiter plates are incubated for 3 to 7 days at 20° C. and 85% relative humidity. After the incubation inhibition of growth is determined photometrically. Efficacy is calculated in relation to the untreated control, 0% efficacy means fungal growth as high as in untreated control while 100% efficacy means no fungal growth is measured.
as §5

Assay [4] relates to Ustilago segetum var. avenae. Briefly: in vitro-Test with fungal microorganisms, Method B (tables I6-I11). The format is cell-based. The method, then:
as §1, §6, §7, §8, §5

In assay [5] the test system is Cercospora beticola. Briefly: in vitro-Test with fungal microorganisms, Method B (tables C11-C20). In kind it is cell-based. The method, then:
as §1, §6, §7, §8, §5

A further assay concerns Colletotrichum coccodes. Description: in vitro-Test with fungal microorganisms, Method B (tables J1-J11). In kind it is cell-based. The method, then:
as §1, §6, §7, §8, §5

In the next assay the test system is Cordana musae. Description: in vitro-Test with fungal microorganisms, Method B (tables E9-E16). In kind it is cell-based. The following applies: single active. Here is the method:
as §1, §6, §7, §8, §5

In assay [6] the test system is Botrytis cinerea. Description: in vitro-Test with fungal microorganisms, Method B (tables B15-B18). The format is cell-based. Here is the method: as §1, §6, §7, §8, §5
In the next assay the test system is Alternaria alternata. Briefly: in vitro-Test with fungal microorganisms, Method B (tables A13-A22). The format is cell-based. As to conditions: for inhibition of growth at 0.008 ppm / inhibition of growth at 0.04 ppm / inhibition of growth at 0.2 ppm / inhibition of growth at 1 ppm: Alternaria alternata, read-out: Efficacy. The method, then:
as §1, §6, §7, §8, §5

Setting [7] is: Botrytis cinerea, 1 ppm alone, read-out: Efficacy %.

Turning to `Cc1ccc(CC2CON=C(c3cc(C)nnc3Oc3cccc(C4CC4)c3F)N2)c(C)c1` (racemic) [Compound I-052, rac-3-[3-(3-cyclopropyl-2-fluorophenoxy)-6-methylpyridazin-4-yl]-5-[(2,4-dimethylphenyl)methyl]-5,6-dihydro-4H-1,2,4-oxadiazine], the inhibition of growth at 0.0008 ppm with Cercospora beticola [1] (0.0008 ppm alone) was 0%; with Diaporthe citri (0.0008 ppm) it was 0%; in assay [2] (0.0008 ppm), 2%; in the assay with Botrytis cinerea [3] (0.0008 ppm) it was 0%; in the assay on Alternaria alternate (0.0008 ppm), 2%. In addition, the inhibition of growth at 0.004 ppm with Cercospora beticola [1] (0.004 ppm alone) worked out at 0%; in the assay on Diaporthe citri (0.004 ppm), 0%; in assay [2] (0.004 ppm), 3%; with Botrytis cinerea [3] (0.004 ppm), 0%; with Alternaria alternate (0.004 ppm), 0%. Besides, the inhibition of growth at 0.02 ppm worked out at 0% with Cercospora beticola [1] (0.02 ppm alone); 100% in the assay on Diaporthe citri (0.02 ppm); 0% in assay [2] (0.02 ppm); 0% with Botrytis cinerea [3] (0.02 ppm); 9% in the assay with Alternaria alternate (0.02 ppm). The inhibition of growth at 0.1 ppm in the assay with Cercospora beticola [1] (0.1 ppm alone) worked out at 20%; in the assay on Diaporthe citri (0.1 ppm), 100%; in assay [2] (0.1 ppm), 0%; with Botrytis cinerea [3] (0.1 ppm), 88%; with Alternaria alternate (0.1 ppm) it was 72%.

For `N#Cc1ccc(Oc2ccc(C(F)(F)C(O)(Cn3[nH]cnc3=S)c3ccc(F)cc3F)nc2)cc1` (stereo not drawn) [(1.062) fluoxytioconazole, fluoxytio-conazole], the Efficacy with Fusarium culmorum (single active compound, 1 ppm) was 30%; with Cordana musae (0.008 ppm), 4%; in the assay with Cordana musae (0.2 ppm), 10%. In addition, the Efficacy % was 43% in [4] (0.04 ppm); 0% in the assay on Cercospora beticola [5] (single compound, 0.008 ppm); 0% in the assay with Cercospora beticola [5] (single compound, 0.04 ppm); 0% with Cercospora beticola [5] (single compound, 0.2 ppm); 48% and 54% with Cercospora beticola [5] (single compound, 1 ppm); 32% in the assay on Colletotrichum coccodes (0.008 ppm). Further, the Efficacy % in the assay on Colletotrichum coccodes (0.04 ppm) turned out to be 0%; with Colletotrichum coccodes (single active compound at 0.008 ppm), 0%; with Colletotrichum coccodes (single active compound at 0.04 ppm), 2%; in the assay with Colletotrichum coccodes (single active compound at 0.2 ppm), 29%; in the assay with Colletotrichum coccodes (single active compound at 1 ppm), 35%.

As for `Cc1ccc(C[C@H]2CON=C(c3cc(C)nnc3Oc3cccc(C4CC4)c3F)N2)c(C)c1` [Compound I-130, (5S)-3-[3-(3-cyclopropyl-2-fluorophenoxy)-6-methylpyridazin-4-yl]-5-(2,4-dimethylbenzyl)-5,6-dihydro-4H-1,2,4-oxadiazine], the inhibition of growth at 0.008 ppm came to 96% in the assay with Botrytis cinerea [6] (Botrytis cinerea, 0.008 ppm alone, read-out: Efficacy %); 25% in the assay on Alternaria alternata (0.008 ppm); 94% in the assay with Colletotrichum coccodes (Colletotrichum coccodes, applied alone, 0.008 ppm, read-out: Efficacy %). The inhibition of growth at 0.04 ppm with Botrytis cinerea [6] (Botrytis cinerea, 0.04 ppm alone, read-out: Efficacy %) came out at 100%; in the assay on Alternaria alternata it was 100%; in the assay with Colletotrichum coccodes (Colletotrichum coccodes, applied alone, 0.04 ppm, read-out: Efficacy %), 100%. In addition, the inhibition of growth at 0.2 ppm came to 100% in the assay with Botrytis cinerea [6] (Botrytis cinerea, 0.2 ppm alone, read-out: Efficacy %); 100% in the assay with Alternaria alternata; 100% in the assay with Colletotrichum coccodes (Colletotrichum coccodes, applied alone, 0.2 ppm, read-out: Efficacy %). Besides, the inhibition of growth at 1 ppm with Botrytis cinerea [6] (setting [7]) amounted to 100%; in the assay on Alternaria alternata it was 100%; in the assay with Colletotrichum coccodes (Colletotrichum coccodes, applied alone, 1 ppm, read-out: Efficacy %) it was 100%.

Regarding `Cc1ccc(C[C@@H]2CON=C(c3cc(C)nnc3Oc3cccc(Cl)c3F)N2)c(Cl)c1` [Compound I-338, (5R)-3-[3-(3-chloro-2-fluorophenoxy)-6-methylpyridazin-4-yl]-5-(2-chloro-4-methylbenzyl)-5,6-dihydro-4H-1,2,4-oxadiazine], in the assay with Botrytis cinerea [6] (setting [7]), the inhibition of growth at 1 ppm came out at 85%. In the assay with Fusarium culmorum, the inhibition of growth at 0.008 ppm was determined as 22%, the inhibition of growth at 0.04 ppm came to 21% and the inhibition of growth at 0.2 ppm is 0%. In the assay on Fusarium culmorum (1 ppm), the inhibition of growth at 1 ppm amounted to 0%. Moreover, in the assay on Alternaria alternata (0.008 ppm), the Efficacy is given as 0% and the inhibition of growth at 0.008 ppm worked out at 0%.

With `Cc1ccc(C[C@H]2CON=C(c3cc(C)nnc3Oc3cccc(Cl)c3F)N2)c(Cl)c1` [Compound I-339, (5S)-3-[3-(3-chloro-2-fluoro-phenoxy)-6-methylpyridazin-4-yl]-5-(2-chloro-4-methylbenzyl)-5,6-dihydro-4H-1,2,4-oxadiazine], the inhibition of growth at 0.008 ppm was found to be 0% in the assay with Fusarium culmorum; 2% in assay [4] (alone, 0.008 ppm, read-out: Efficacy %); 28% in the assay with Cercospora beticola [5] (Cercospora beticola, 0.008 ppm, read-out: Efficacy %); 63% in the assay with Cordana musae (Neocordana musae, 0.008 ppm, read-out: Efficacy). Besides, the inhibition of growth at 0.04 ppm in the assay on Fusarium culmorum came out at 0%; in assay [4] (alone, 0.04 ppm, read-out: Efficacy %), 0%; with Cercospora beticola [5] (Cercospora beticola, 0.04 ppm, read-out: Efficacy %) it was 0%; in the assay with Alternaria alternata (single compound) it was 100%; with Cordana musae (Neocordana musae, 0.04 ppm, read-out: Efficacy), 100%. The inhibition of growth at 0.2 ppm with Fusarium culmorum amounted to 14%; in assay [4] (alone, 0.2 ppm, read-out: Efficacy %) it was 0%; in the assay on Cercospora beticola [5] (Cercospora beticola, 0.2 ppm, read-out: Efficacy %) it was 61%; in the assay with Alternaria alternata (single compound), 100%; in the assay with Cordana musae (Neocordana musae, 0.2 ppm, read-out: Efficacy) it was 100%. In addition, the inhibition of growth at 1 ppm with Fusarium culmorum (1 ppm) was determined as 99%; in [4] (alone, 1 ppm, read-out: Efficacy %), 0%; with Cercospora beticola [5] (Cercospora beticola, 1 ppm, read-out: Efficacy %), 98%; with Alternaria alternata (single compound), 100%; in the assay with Cordana musae (Neocordana musae, 1 ppm, read-out: Efficacy), 100%.

As to `CS(=O)(=O)Oc1cccc(Cl)c1C1CC(c2csc(C3CCN(C(=O)Cn4nc(C(F)F)cc4C(F)F)CC3)n2)=NO1` (stereo not drawn) [fluoxapiprolin], the Efficacy % in the assay with Botrytis cinerea [6] (0.8 ppm, alone) was 0%; in the assay with Botrytis cinerea [6] (4 ppm alone), 6%; in the assay on Botrytis cinerea [6] (20 ppm alone) it was 5%; in the assay with Cercospora beticola [5] (20 ppm), 0%. The Efficacy is 0% in the assay on Alternaria alternata (4 ppm); 1% in the assay on Alternaria alternata (20 ppm); 0% with Alternaria alternata (single compound, 0.8 ppm).

For `N#Cc1ccc(Oc2ccc(C(F)(F)C(O)(Cn3[nH]cnc3=S)c3ccc(F)cc3F)nc2)cc1` (stereo not drawn) [fluoxytioconazole], the Efficacy % is given as 0% in the assay on Botrytis cinerea [6] (0.008 ppm alone); 0% in the assay on Botrytis cinerea [6] (0.2 ppm alone); 13% with Botrytis cinerea [6] (1 ppm alone); 8% in [4] (alone, 0.008 ppm); 35% in assay [4] (alone, 0.04 ppm); 100% in assay [4] (alone, 0.2 ppm). The Efficacy in the assay with Fusarium culmorum (0.008 ppm alone) is 12%; in the assay on Fusarium culmorum (1 ppm alone) it was 27%; with Alternaria alternata (single compound, 0.008 ppm) it was 5%.

Consider `CCO[PH](=O)O` [fosetyl-al], for which the Efficacy % turned out to be 2% with Botrytis cinerea [6] (4 ppm alone) and 0% with Botrytis cinerea [6] (100 ppm alone).
